From patent US20150335016A1, “Herbicidal Composition Comprising a Cornexistin” (BASF SE, priority 2012, published 2015) come the findings set out here.

SMILES strings stand for the structures.

What all share (test): Greenhouse post-emergence herbicidal test
Holding throughout (type): in vivo

Experiment [1] has as its system COMBE (Commelina benghalensis). How it is done: (§1) The culture containers used were plastic pots containing loamy sand with approximately 2-3.0% of organic matter. The seeds of the test plants were sown separately for each species.
(§2) For the post-emergence treatment, the test plants were grown to a plant height of from 3 to 15 cm, depending on the plant habit, and only then treated with the active compounds which had been suspended or emulsified in water. To this end, the test plants were either sown directly, and grown in the same containers, or they were first grown separately as seedlings and transplanted into the test containers a few days prior to treatment.
(§3) Depending on the species, the plants were kept at 10-25° C. and 20-35° C., respectively.
(§4) The test period extended over 2 to 4 weeks. During this time, the plants were tended and their response to the individual treatments was evaluated.
(§5) Evaluation was carried out using a scale from 0 to 100. 100 means no emergence of the plants, or complete destruction of at least the above-ground parts, and 0 means no damage or normal course of growth. A good herbicidal activity is given at values of at least 70, and very good herbicidal activity is given at values of at least 85.
(§6) In the examples below, using the method of S. R. Colby (1967) “Calculating synergistic and antagonistic responses of herbicide combinations”, Weeds 15, p. 22ff., the value E, which is expected if the activity of the individual active compounds is only additive, was calculated.
(§7) where • X=percent activity using active compound A at an application rate a; • Y=percent activity using active compound B at an application rate b; • E=expected activity (in %) by A+B at application rates a+b.
(§8) If the value found experimentally is higher than the value E calculated according to Colby, a synergistic effect is present.
(§9) For preparation of the mixtures herbicides A were used in form of an aqueous solution comprising 22.5% by weight of the respective herbicide A. The herbicides B were used in form of the respective commercially available formulations as identified below. If appropriate, the adjuvant DASH® HC was added to the mixtures.
(§10) The respective mixtures of active ingredients were introduced into the spray liquor used for applying the active compound. In the examples, the solvent used was water.

The subject of the next experiment is SETFA (Setaria faberi). How it is done: as §1, §2, §3, §4, §5, §6, §7, §8, §9, §10
Experiment [2] concerns BRAPP (Urochloa platyphylla). How it is done: as §1, §2, §3, §4, §5, §6, §7, §8, §9, §10
The test system of experiment [3] is DIGSA (Digitaria sanguinales). How it is done: as §1, §2, §3, §4, §5, §6, §7, §8, §9, §10
Experiment [4] has as its system PANMI (Panicum miliaceum L.). The protocol:
as §1, §2, §3, §4, §5, §6, §7, §8, §9, §10

The subject of experiment [5] is AMARE (Amaranthus retroflexus). The protocol: as §1, §2, §3, §4, §5, §6, §7, §8, §9, §10
For experiment [6], the system named is CHEAL (Chenopodium album). The protocol: as §1, §2, §3, §4, §5, §6, §7, §8, §9, §10
Experiment [7] concerns ABUTH (Abutilon theophrasti). How it is done: as §1, §2, §3, §4, §5, §6, §7, §8, §9, §10
The test system of experiment [8] is POLPE (Polygonum persicaria). The protocol: as §1, §2, §3, §4, §5, §6, §7, §8, §9, §10
Experiment [9] has as its system ERICA (Erigeron canadensis). The protocol:
as §1, §2, §3, §4, §5, §6, §7, §8, §9, §10

Experiment [10] concerns AMBEL (Ambrosia artemisiifolia). How it is done:
as §1, §2, §3, §4, §5, §6, §7, §8, §9, §10

The mark [11] stands for this setting: Example 4, post-emergence, B.30 12.5 g/ha a.i.
Setting [12] is: Example 2, post-emergence, B.49 75 g/ha a.i.
The mark [13] stands for this setting: Example 4, post-emergence; a1) 125 g/ha a.i.
The mark [14] stands for this setting: Example 1, post-emergence; a1) 125 g/ha a.i.
Setting [15] is: Example 2, post-emergence; a1) 62.5 g/ha a.i.
Setting [16] is: Example 5, post-emergence; a1) 31.25 g/ha a.i.
Where [17] appears, read: Example 5, post-emergence, B.55 2.5 g/ha a.i.
[18] abbreviates: Example 1, post-emergence, B.17 62.5 g/ha a.i.

On to `Cn1nc(C(F)(F)F)c(CS(=O)(=O)C2=NOC(C)(C)C2)c1OC(F)F` [B.30, pyroxasulfone], for which the “herbicidal activity against COMBE found” value in experiment [1] (setting [11]) is on record as 45%. For the same compound, the “herbicidal activity against SETFA found” value with SETFA (Setaria faberi) (setting [11]) is reported as 40%. For the same compound, the “herbicidal activity against BRAPP found” value in experiment [2] (setting [11]) turned out to be 50%.

`CCc1cccc(CC)c1N(COC)C(=O)CCl` [B.49, alachlor]: the “herbicidal activity against DIGSA found” value in experiment [3] (setting [12]) was 40%. Also, the “herbicidal activity against PANMI found” value in experiment [4] (setting [12]) stood at 45%. Further, the “herbicidal activity against AMARE found” value in experiment [5] (setting [12]) was found to be 30%. The “herbicidal activity against CHEAL found” value in experiment [6] (setting [12]) is 0%.

On to `C/C=C1/CC2=C(C(=O)OC2=O)[C@H](CCC)[C@H](O)C(=O)C[C@@H]1O` [a1), cornexistin], for which the “herbicidal activity against COMBE found” value in [1] (setting [13]) is 55%. Moreover, the “herbicidal activity against ABUTH found” value in [7] (setting [14]) was 50%. Moreover, in [8] (setting [14]), the “herbicidal activity against POLPE found” value is reported as 60%. In the experiment with SETFA (Setaria faberi) (setting [13]), the “herbicidal activity against SETFA found” value turned out to be 80%. The “herbicidal activity against ERICA found” value in experiment [9] (setting [14]) was determined as 40%; in experiment [9] (Example 3, post-emergence, heading: +1% by weight DASH HC; a1) 62.5 g/ha a.i.), 60%. The “herbicidal activity against DIGSA found” value in [3] (setting [15]) is 55%. For the same compound, in experiment [4] (setting [15]), the “herbicidal activity against PANMI found” value is 80%. In addition, the “herbicidal activity against AMARE found” value in experiment [5] (setting [15]) is given as 50%. The “herbicidal activity against AMBEL found” value came out at 65% in experiment [10] (setting [14]) and 80% in experiment [10] (setting [16]). For the same compound, the “herbicidal activity against CHEAL found” value in [6] (setting [15]) is 90%; in experiment [6] (setting [16]) it was 70%. The “herbicidal activity against BRAPP found” value in experiment [2] (setting [13]) came to 50%.

With `COC(=O)c1ccccc1S(=O)(=O)NC(=O)Nc1nc(C)nc(OC)n1` [B.55, metsulfuron-methyl], the “herbicidal activity against AMBEL found” value in experiment [10] (setting [17]) was 75%. In addition, the “herbicidal activity against CHEAL found” value in experiment [6] (setting [17]) worked out at 40%.

Take `CC(C)N1C(=O)c2ccccc2NS1(=O)=O` [B.17, bentazone]: the “herbicidal activity against ABUTH found” value in experiment [7] (setting [18]) turned out to be 40%. Moreover, in [8] (setting [18]), the “herbicidal activity against POLPE found” value was found to be 55%. For the same compound, the “herbicidal activity against ERICA found” value in experiment [9] (setting [18]) is 70%. Further, the “herbicidal activity against AMBEL found” value in experiment [10] (setting [18]) was determined as 30%.

As to `COCc1cnc(C2=NC(C)(C(C)C)C(=O)N2)c(C(=O)O)c1` (stereo not shown) [B.3, imazamox], the “herbicidal activity against ERICA found” value in experiment [9] (Example 3, post-emergence, heading: +1% by weight DASH HC, B.3 9 g/ha a.i.) is 90%.
